From US20260184707A1, “PHARMACEUTICAL COMPOUNDS FOR THE TREATMENT OF COMPLEMENT MEDIATED DISORDERS” (ALEXION PHARMACEUTICALS, INC., priority 2022, published 2026)

molecular target: T1, Human complement C1s enzyme (Homo sapiens, UniProt P09871); assay: Human C1s enzyme assay; format: biochemical; conditions: human complement C1s enzyme 1.16 nM, substrate Z-L-Lys-SBzl, A405; read-out: IC50 (Stars)
T1 construct: purified from human serum, Complement Technology, Inc; purchased Complement Technology, Inc; host or cells: human serum (plasma-derived native protein)
T1 sequence (P09871 438-688 limits assumed): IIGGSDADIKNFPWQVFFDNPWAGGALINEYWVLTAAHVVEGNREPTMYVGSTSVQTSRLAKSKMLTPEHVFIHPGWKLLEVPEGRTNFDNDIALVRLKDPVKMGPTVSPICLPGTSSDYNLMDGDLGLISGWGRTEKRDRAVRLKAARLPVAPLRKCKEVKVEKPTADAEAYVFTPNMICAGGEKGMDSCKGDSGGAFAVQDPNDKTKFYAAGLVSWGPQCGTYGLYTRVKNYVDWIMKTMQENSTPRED
T1 sequence (P09871 16-437 partner limits assumed): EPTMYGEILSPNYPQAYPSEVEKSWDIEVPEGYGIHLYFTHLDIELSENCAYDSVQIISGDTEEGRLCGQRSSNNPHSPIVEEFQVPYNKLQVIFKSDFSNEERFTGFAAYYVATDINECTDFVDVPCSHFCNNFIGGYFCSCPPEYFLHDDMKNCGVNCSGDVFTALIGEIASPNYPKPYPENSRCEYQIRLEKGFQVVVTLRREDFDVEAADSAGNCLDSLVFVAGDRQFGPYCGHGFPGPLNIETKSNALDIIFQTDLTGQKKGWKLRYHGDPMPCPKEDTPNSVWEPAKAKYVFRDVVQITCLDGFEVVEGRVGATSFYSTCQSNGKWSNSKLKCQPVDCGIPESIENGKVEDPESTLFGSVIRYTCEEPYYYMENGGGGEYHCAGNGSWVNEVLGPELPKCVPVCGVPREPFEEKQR
Method in brief: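 Serum-purified human C1s (1.16 nM final) preincubated 5 min at room temperature with compound in 50 mM Tris, 1 M NaCl, pH 7.5. Z-L-Lys-SBzl and DTNB added at 100 μM each; A405 recorded every 30 s. IC50 from nonlinear regression of reaction rates versus compound concentration.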

Compound | IC50
O=C(Cn1c(-c2ccccc2)ncc(NCCCc2ccc(S(F)(F)(F)(F)F)cc2)c1=O)NCc1cc2cnccc2[nH]1 [Compound 104, N-((1H-pyrrolo[3,2-c]pyridin-2-yl)methyl)-2-(6-oxo-5-((3-(4-(pentafluoro-lambda6-sulfaneyl)phenyl)propyl)-amino)-2-phenylpyrimidin-1(6H)-yl)acetamide] | < 100 nM
O=C(Cn1c(-c2ccccc2)ncc(NCCCCCc2ccccc2)c1=O)NCc1cc2cnccc2[nH]1 [Compound 3, N-((1H-pyrrolo[3,2-c]pyridin-2-yl)methyl)-2-(6-oxo-2-phen-yl-5-((5-phenylpentyl)amino)-pyrimidin-1(6H)-yl)acetamide] | < 100 nM
CC(C)(Nc1cnc(-c2ccccc2F)n(CC(=O)NCc2cc3cnccc3[nH]2)c1=O)c1ccc2oc3ccccc3c2c1 [Compound 311, N-((1H-pyrrolo[3,2-c]pyridine-2-yl)methyl)-2-(5-((2-(dibenzo[b,d]furan-2-yl)propan-2-yl)amino)-2-(2-fluorophenyl)-6-oxopyrimidin-1(6H)-yl)acetamide] | 100 to 1000 nM
O=C(Cn1c(-c2ccccc2)ncc(NC(=O)c2cccc(-c3ncco3)c2)c1=O)NCc1cc2cnccc2[nH]1 [Compound 222, N-(1-(2-(((1H-pyrrolo[3,2-c]pyridine-2-yl)methyl)amino)-2-oxoethyl)-6-oxo-2-phenyl-1,6-dihydropyrimidin-5-yl)-3-(oxazol-2-yl)benzamide] | > 1000 nM
O=C(Cn1c(-c2ccc(N3CCCC3=O)cc2)ncc(NCc2ccc3oc4ccccc4c3c2)c1=O)NCc1cc2cnccc2[nH]1 [Compound 153, N-((1H-pyrrolo[3,2-c]pyridin-2-yl)methyl)-2-(5-((dibenzo [b,d]furan-2-ylmethyl)amino)-6-oxo-2-(4-(2-oxopyrrolidin-1-yl)phenyl)pyrimidin-1(6H)-yl)acetamide] | < 100 nM
C[C@@H](NC(=O)Cn1c(-c2ccccc2)ncc(NCCCc2ccccc2)c1=O)c1cc2cnccc2[nH]1 [Compound 10, (R)-N-(1-(1H-pyrrolo[3,2-c]pyridin-2-yl)ethyl)-2-(6-oxo-2-phenyl-5-((3-phenylpropyl)-amino)pyrimidin-1(6H)-yl)-acetamide] | < 100 nM
O=C(Cn1c(-c2ccccc2)ncc(NC(=O)C23CC(c4ccccc4)(C2)C3)c1=O)NCc1cc2cnccc2[nH]1 [Compound 243, N-(1-(2-(((1H-pyrrolo[3,2-c]pyridin-2-yl)methyl)amino)-2-oxoethyl)-6-oxo-2-phenyl-1,6-dihydropyrimidin-5-yl)-3-phenylbicyclo[1.1.1]pentane-1-carboxamide] | 100 to 1000 nM
C[C@@H](Nc1cnc(N2CCCC(C(F)(F)F)C2)n(CC(=O)NCc2cc3cnccc3[nH]2)c1=O)c1ccc2oc3ccccc3c2c1 (stereo partly drawn) [Compound 402, N-((1H-pyrrolo[3,2-c]pyridin-2-yl)methyl)-2-(5-(((R)-1-(dibenzo[b,d]furan-2-yl)ethyl)-amino)-6-oxo-2-(3-(trifluoro-methyl)piperidin-1-yl)pyrimi-din-1(6H)-yl)acetamide] | 100 to 1000 nM
O=C(Cn1c(-c2ccccc2)ncc(N2CCn3c(nnc3C(F)(F)F)C2)c1=O)NCc1cc2cnccc2[nH]1 [Compound 44, N-((1H-pyrrolo[3,2-c]pyridin-2-yl)methyl)-2-(6-oxo-2-phen-yl-5-(3-(trifluoromethyl)-5,6-dihydro-[1,2,4]triazolo[4,3-a]pyrazin-7(8H)-yl)pyrimidin-1(6H)-yl)acetamide] | 100 to 1000 nM
O=C(Cn1c(-c2ccccc2F)ncc(NC2(c3ccc4oc5ccccc5c4c3)CC2)c1=O)NCc1cc2cnccc2[nH]1 [Compound 403, N-((1H-pyrrolo[3,2-c]pyridine-2-yl)methyl)-2-(5-((1-(dibenzo[b,d]furan-2-yl)cyclopropyl)amino)-2-(2-fluorophenyl)-6-oxopyrimidin-1(6H)-yl)acetamide] | < 100 nM
